We go through three molecules from article PMC7558026, “Exploring and applying the substrate promiscuity of a C-glycosyltransferase in the chemo-enzymatic synthesis of bioactive C-glycosides” (Nature Communications, 2020).

Where a chain is given by its changes, count along the chain named. Values joined by “and” are separate entries in the source; they are usually repeats but may differ in a detail not shown here. Identical values can stand only once.

What all share (format): biochemical, Aloe barbadensis
For one test, the target named is T1, AbCGT V183D (Aloe vera, UniProt A0A7G9P699, V183D).
T1 sequence (A0A7G9P699 1-470 V183D): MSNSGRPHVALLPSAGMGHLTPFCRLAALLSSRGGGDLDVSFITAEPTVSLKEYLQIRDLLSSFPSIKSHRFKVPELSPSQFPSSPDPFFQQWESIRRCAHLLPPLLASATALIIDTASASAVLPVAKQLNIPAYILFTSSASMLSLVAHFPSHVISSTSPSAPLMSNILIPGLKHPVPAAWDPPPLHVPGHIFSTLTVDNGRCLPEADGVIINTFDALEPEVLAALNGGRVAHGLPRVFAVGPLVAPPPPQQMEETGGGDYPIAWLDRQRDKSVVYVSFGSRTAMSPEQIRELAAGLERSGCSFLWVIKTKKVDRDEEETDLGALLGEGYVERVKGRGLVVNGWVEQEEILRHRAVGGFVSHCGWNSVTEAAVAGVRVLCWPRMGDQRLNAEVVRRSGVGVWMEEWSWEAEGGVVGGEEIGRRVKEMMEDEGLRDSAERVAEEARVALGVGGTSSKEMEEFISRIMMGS
The test is described as follows: Glycosyltransferase activity of AbCGT variant V183D. Here is the method:
(§1) The reaction mixture contained 0.5 mM sugar donors (1.0 mM for di-glycosylation), 0.25 mM aglycons, 50 mM Tris-HCl (pH 7.4), and 50‒100 μg of purified AbCGT in a final volume of 100 μL. Due to the instability of some acceptors in the buffer of pH 11.0, the reactions were performed under the physiological conditions (pH 7.4, 30 °C) to compare the catalytic activities of AbGT27 with different substrates under the same conditions. The reactions were performed at 30 °C for up to 12 h and terminated by the addition of 200 μL of ice-cold methanol. Subsequently, samples were centrifuged at 15,000 × g for 30 min to collect the supernatant, and aliquots were analyzed by HPLC-UV/ESIMS. HPLC analysis was performed on a Shiseido CAPCELL PAK C18 MG III column (250 mm × 4.6 mm I.D., 5 μm, Shiseido Co., Ltd., Japan) at a flow rate of 1 mL min^‒1. The mobile phase was a gradient elution of solvents A (0.1% formic acid aqueous solution) and B (methanol). The gradient programs were used for the analysis of the reactions (Supplementary Table 6). The conversion rates of the enzyme reactions were calculated from peak areas of glycosylated products and substrates as analyzed by HPLC. To facilitate inferential statistical analysis, three parallel assays were routinely performed; the means ± SD from triplicate analyses are reported here.
(§2) Site-saturation mutagenesis of AbCGT at residue 183 was performed by PCR using pET28a-AbCGT as a template and the corresponding degenerate primers, which are listed in Supplementary Table 5. PCR products were purified and transformed into Trans1-T1 (DE3) E. coli. The sequences of pET28a-AbCGT mutants were confirmed by sequencing, and transformed into Transetta (DE3) E. coli for heterologous expression following protein purification.

The target in another test is AbCGT (Aloe vera, UniProt A0A7G9P699). Kind of test: Glycosyltransferase activity assay, purified AbCGT (wild type) with aglycon acceptors and UDP-Glc. The conditions noted are these: for conversion rates, O,N,S-glycosylation / conversion rates, di-C-glycosylation / conversion rates, mono-C-glycosylation: aglycon acceptor with UDP-Glc, pH 7.4, 30 °C, up to 12 h, Reaction-1 to -3. As to the method:
as §1, with “Due” for “The reaction mixture contained 0.5 mM sugar donors (1.0 mM for di-glycosylation), 0.25 mM aglycons, 50 mM Tris-HCl (pH 7.4), and 50‒100 μg of purified AbCGT in a final volume of 100 μL. Due”, “HPLC analysis was performed on a Shiseido CAPCELL PAK C18 MG III column (250 mm × 4.6 mm I.D., 5 μm, Shiseido Co., Ltd., Japan) at a flow rate of 1 mL min^‒1. The mobile phase was a gradient elution of solvents A (0.1% formic acid aqueous solution) and B (methanol).” left out

In the next test the target is T2, AbCGT V183E (Aloe vera, UniProt A0A7G9P699, V183E).
T2 sequence (A0A7G9P699 1-470 V183E): T1 sequence (A0A7G9P699 1-470 V183D) with D183E
The test is described as follows: Glycosyltransferase activity of AbCGT variant V183E. As to the method:
as §1, §2

Sequence of AbCGT (A0A7G9P699 entry or part of it): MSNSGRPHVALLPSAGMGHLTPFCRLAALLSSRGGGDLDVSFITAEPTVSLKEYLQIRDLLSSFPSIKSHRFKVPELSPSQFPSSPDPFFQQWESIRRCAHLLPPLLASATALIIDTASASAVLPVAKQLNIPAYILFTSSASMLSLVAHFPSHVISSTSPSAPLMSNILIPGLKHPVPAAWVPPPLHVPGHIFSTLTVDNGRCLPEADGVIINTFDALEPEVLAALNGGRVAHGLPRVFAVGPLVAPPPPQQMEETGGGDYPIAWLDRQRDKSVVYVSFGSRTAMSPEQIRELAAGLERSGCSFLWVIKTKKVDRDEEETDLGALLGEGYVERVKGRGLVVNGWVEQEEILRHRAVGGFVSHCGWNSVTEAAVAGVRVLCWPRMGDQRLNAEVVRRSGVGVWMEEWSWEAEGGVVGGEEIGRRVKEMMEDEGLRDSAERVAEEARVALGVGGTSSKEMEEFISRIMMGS

On to `CC(=O)c1c(O)cc(C)cc1O` [Compound 7], for which the “V183D/yield of C-glycoside(%)” value was 8% at AbCGT V183D (reaction-1), 7.2% on AbCGT V183D (reaction-2) and 7.2% on AbCGT V183D (reaction-3). The “V183D/yield of O-glycoside(%)” value at AbCGT V183D (reaction-1) amounted to 0.8%; on AbCGT V183D (reaction-2), 1%; on AbCGT V183D (reaction-3), 1.3%. For the same molecule, the “conversion rates, O,N,S-glycosylation” value on AbCGT was 77% and 78.6% and 82.4%. For the same molecule, the “conversion rates, di-C-glycosylation” value on AbCGT worked out at 0%. The “conversion rates, mono-C-glycosylation” value at AbCGT is 13.9% and 12% and 15.9%. Moreover, the “WT/yield of C-glycoside(%)” value on AbCGT (reaction-1) turned out to be 15.2%; at AbCGT (reaction-2), 14.1%; at AbCGT (reaction-3) it was 13.5%. For the same molecule, the “WT/yield of O-glycoside(%)” value came out at 77.6% on AbCGT (reaction-1), 78% on AbCGT (reaction-2) and 81.4% on AbCGT (reaction-3). Also, the “V183E/yield of C-glycoside(%)” value on AbCGT V183E (reaction-1) came out at 11.1%; on AbCGT V183E (reaction-2) it was 8.9%; at AbCGT V183E (reaction-3) it was 13.1%. Besides, the “V183E/yield of O-glycoside(%)” value at AbCGT V183E (reaction-1), at AbCGT V183E (reaction-2) and on AbCGT V183E (reaction-3) was 0% throughout.
As to `COc1cc(O)c(C(C)=O)c(O)c1` [Compound 13], the “V183D/yield of C-glycoside(%)” value at AbCGT V183D (reaction-1) was 6.8%; at AbCGT V183D (reaction-2), 7.3%; at AbCGT V183D (reaction-3), 7%. The “V183D/yield of O-glycoside(%)” value on AbCGT V183D (reaction-1), at AbCGT V183D (reaction-2) and on AbCGT V183D (reaction-3) was 0% throughout. Moreover, the “conversion rates, O,N,S-glycosylation” value at AbCGT is 20.7% and 23.5% and 25.6%. Also, the “conversion rates, di-C-glycosylation” value at AbCGT came out at 0%. In addition, the “conversion rates, mono-C-glycosylation” value on AbCGT is 66.9% and 65.9% and 68.6%. Moreover, the “WT/yield of C-glycoside(%)” value on AbCGT (reaction-1) was found to be 70.5%; at AbCGT (reaction-2), 65%; on AbCGT (reaction-3), 68.1%. The “WT/yield of O-glycoside(%)” value is 21.2% at AbCGT (reaction-1), 22.7% on AbCGT (reaction-2) and 25.9% on AbCGT (reaction-3). The “V183E/yield of C-glycoside(%)” value on AbCGT V183E (reaction-1) is reported as 5.7%; at AbCGT V183E (reaction-2) it was 4.1%; at AbCGT V183E (reaction-3), 6%. The “V183E/yield of O-glycoside(%)” value worked out at 0.8% on AbCGT V183E (reaction-1), 2% on AbCGT V183E (reaction-2) and 1.1% on AbCGT V183E (reaction-3).
Regarding `COc1cc(O)c(C(C)=O)c(OC)c1` [Compound 14], the “V183D/yield of C-glycoside(%)” value at AbCGT V183D (reaction-1), on AbCGT V183D (reaction-2) and on AbCGT V183D (reaction-3) was 0% each time. Also, the “V183D/yield of O-glycoside(%)” value on AbCGT V183D (reaction-1), on AbCGT V183D (reaction-2) and on AbCGT V183D (reaction-3) was 0% throughout. In addition, at AbCGT, the “conversion rates, O,N,S-glycosylation” value was 2% and 1.9%. In addition, the “conversion rates, di-C-glycosylation” value on AbCGT came to 0%. Besides, on AbCGT, the “conversion rates, mono-C-glycosylation” value was determined as 0%. The “WT/yield of C-glycoside(%)” value at AbCGT (reaction-1), on AbCGT (reaction-2) and on AbCGT (reaction-3) was 0% each time. In addition, the “WT/yield of O-glycoside(%)” value at AbCGT (reaction-1) is on record as 1.5%; on AbCGT (reaction-2) it was 1.6%; on AbCGT (reaction-3), 2.8%. Also, the “V183E/yield of C-glycoside(%)” value at AbCGT V183E (reaction-1) is given as 8%; at AbCGT V183E (reaction-2) it was 7.9%; at AbCGT V183E (reaction-3) it was 7.5%. The “V183E/yield of O-glycoside(%)” value at AbCGT V183E (reaction-1), on AbCGT V183E (reaction-2) and at AbCGT V183E (reaction-3) was 0% throughout.
